We go through 15 molecules from patent publication US8188101B2 (AstraZeneca AB, priority 2008, dated 2012).

The subject of the assay is Aβ42 release. Description: Aβ release in cells stably expressing APPswe, Meso Scale Discovery electrochemiluminescence assay. It counts as cell-based, Human. The conditions noted are these: Homo sapiens, SH-SY5Y, HEK or SH-SY5Y cells stably expressing APPswe, 4-6 hours incubation with test compound. The essentials: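 HEK or SH-SY5Y cells stably expressing APPswe, plated 15-24 h, then exposed to compound (diluted ×200 into fresh medium) for 4-6 h at 37 °C. Secreted Aβ42 in medium quantified by Meso Scale Discovery electrochemiluminescence with specific antibodies; cytotoxicity checked by cellular ATP content.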
In the case of `Cc1nccn1-c1ccc(Nc2nc3c(c(Cc4ccc(F)cc4)n2)CC(C(F)(F)F)CC3)cc1` (stereo not drawn) [Example 99, 4-(4-Fluorobenzyl)-N-(4-(2-methyl-1H-imidazol-1-yl)phenyl)-6-(trifluoromethyl)-5,6,7,8-tetrahydroquinazolin-2-amine], the IC50 (in general, the concentration needed to halve the response being measured) was 0.316 µM. Under `COc1cccc(Cc2nc(Nc3ccc(-n4cnc(C)c4)c(OC)c3)nc3c2COCC3)c1` [Example 100, N-(3-Methoxy-4-(4-methyl-1H-imidazol-1-yl)phenyl)-4-(3-methoxybenzyl)-7,8-dihydro-5H-pyrano[4,3-d]pyrimidin-2-amine] stands 0.1 µM; under `COc1cc(Nc2nc3c(c(C(OC)c4ccccc4)n2)COCC3)ccc1-n1cnc(C)c1` (stereo not drawn) [Example 101, 4-(Methoxy(phenyl)methyl)-N-(3-methoxy-4-(4-methyl-1H-imidazol-1-yl)phenyl)-7,8-dihydro-5H-pyrano[4,3-d]pyrimidin-2-amine], 0.0501 µM; under `COc1cc(Nc2nc3c(c(CCC4CCCO4)n2)COCC3)ccc1-n1cnc(C)c1` (stereo not drawn) [Example 102, N-(3-Methoxy-4-(4-methyl-1H-imidazol-1-yl)phenyl)-4-(2-(tetrahydrofuran-2-yl)ethyl)-7,8-dihydro-5H-pyrano[4,3-d]pyrimidin-2-amine], 0.126 µM. As to `COc1cc(Nc2nc3c(c(C(C)(C)O)n2)COCC3)ccc1-n1cnc(C)c1` [Example 103, 2-(2-(3-Methoxy-4-(4-methyl-1H-imidazol-1-yl)phenylamino)-7,8-dihydro-5H-pyrano[4,3-d]pyrimidin-4-yl)propan-2-ol], the IC50 is 0.1 µM. Under `COc1cc(Nc2nc3c(c(C(C)n4nc(C)cc4C)n2)COCC3)ccc1-n1cnc(C)c1` (stereo not drawn) [Example 104, 4-(1-(3,5-Dimethyl-1H-pyrazol-1-yl)ethyl)-N-(3-methoxy-4-(4-methyl-1H-imidazol-1-yl)phenyl)-7,8-dihydro-5H-pyrano[4,3-d]pyrimidin-2-amine] stands 0.2 µM. The value for `COc1cc(Nc2nc3c(c(Cc4ccccc4)n2)CN(CC#N)CC3)ccc1-n1cnc(C)c1` [Example 105, 2-(4-Benzyl-2-(3-methoxy-4-(4-methyl-1H-imidazol-1-yl)phenylamino)-7,8-dihydropyrido[4,3-d]pyrimidin-6(5H)-yl)acetonitrile] was 0.0158 µM; that for `COc1cc(Nc2nc3c(c(Cc4ccccc4)n2)CNCC3)ccc1-n1cnc(C)c1` [Example 106, 4-Benzyl-N-(3-methoxy-4-(4-methyl-1H-imidazol-1-yl)phenyl)-5,6,7,8-tetrahydropyrido[4,3-d]pyrimidin-2-amine] was 0.0631 µM. The value for `COc1cc(Nc2nc3c(c(Cc4ccccc4)n2)CN(C(C)=O)CC3)ccc1-n1cnc(C)c1` [Example 107, 1-(4-Benzyl-2-(3-methoxy-4-(4-methyl-1H-imidazol-1-yl)phenylamino)-7,8-dihydropyrido[4,3-d]pyrimidin-6(5H)-yl)ethanone] was 0.0251 µM; that for `COc1cc(Nc2nc3c(c(C(C)n4nc(C)cc4C)n2)CN(C(C)=O)CC3)ccc1-n1cnc(C)c1` (stereo not drawn) [Example 108, 1-(4-(1-(3,5-Dimethyl-1H-pyrazol-1-yl)ethyl)-2-(3-methoxy-4-(4-methyl-1H-imidazol-1-yl)phenylamino)-7,8-dihydropyrido[4,3-d]pyrimidin-6(5H)-yl)ethanone] was 0.501 µM; that for `COc1cc(Nc2nc3c(c(COC4CCCC4)n2)COCC3)ccc1-n1cnc(C)c1` [Example 109, 4-(Cyclopentyloxymethyl)-N-(3-methoxy-4-(4-methyl-1H-imidazol-1-yl)phenyl)-7,8-dihydro-5H-pyrano[4,3-d]pyrimidin-2-amine] was 0.02 µM.

Regarding `COc1cc(Nc2nc3c(c(CCN4CCCC4=O)n2)COCC3)ccc1-n1cnc(C)c1` [Example 110, 1-(2-(2-(3-Methoxy-4-(4-methyl-1H-imidazol-1-yl)phenylamino)-7,8-dihydro-5H-pyrano[4,3-d]pyrimidin-4-yl)ethyl)pyrrolidin-2-one], the concentration for half-maximal inhibition (IC50) is 2.51 µM.

`COc1cc(Nc2nc(CCC3CCCO3)c3c(n2)CCN(C(C)=O)C3)ccc1-n1cnc(C)c1` (stereo not drawn) [Example 111, 1-(2-(3-Methoxy-4-(4-methyl-1H-imidazol-1-yl)phenylamino)-4-(2-(tetrahydrofuran-2-yl)ethyl)-7,8-dihydropyrido[4,3-d]pyrimidin-6(5H)-yl)ethanone]: the IC50 is 0.251 µM.

For `COc1cc(Nc2nc(CCC3CCCO3)c3c(n2)CCN(C)C3)ccc1-n1cnc(C)c1` (stereo not drawn) [Example 112, N-(3-Methoxy-4-(4-methyl-1H-imidazol-1-yl)phenyl)-6-methyl-4-(2-(tetrahydrofuran-2-yl)ethyl)-5,6,7,8-tetrahydropyrido[4,3-d]pyrimidin-2-amine], the half-maximal inhibitory concentration (IC50) was 0.126 µM.

As to `Cc1nccn1-c1ccc(Nc2nc3c(c(Cc4ccccc4)n2)C[S+]([O-])CC3)cc1` (stereo not drawn) [Example 114, 4-Benzyl-N-[4-(2-methyl-1H-imidazol-1-yl)phenyl]-7,8-dihydro-5H-thiopyrano[4,3-d]pyrimidin-2-amine 6-oxide], the half-inhibitory concentration (IC50) is 1.58 µM.
